Laboratory results reported in US20250304596A1, “PYRAZINE DERIVATIVES AND USES THEREOF” (FOGHORN THERAPEUTICS INC., priority 2022, published 2025).

How the values were obtained:
[1] = target: T1, HiBit-BRM fusion protein (Homo sapiens, UniProt P51531); assay: HiBiT-BRM cell-based degradation assay (Nano-Glo HiBiT Lytic Detection, 24 h); settings: stable HeLa cell line expressing HiBiT-BRM; for DC50: read-out: BRM HiBit Degradation IC50
T1 construct: expressed in transfected cells
How it was run: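 A stable HeLa line expressing HiBiT-BRM was treated for 24 h with compound in a 10-point, 3-fold series (30 μM final top dose). Remaining HiBiT-BRM was read by lytic LgBiT complementation luminescence. % degradation was normalised to DMSO (high control) and 2 μM reference BRM/BRG1 degrader (low control).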

[2] = target: T2, HiBit-BRG1 fusion protein (Homo sapiens, UniProt P51532); assay: HiBiT-BRG1 cell-based degradation assay (Nano-Glo HiBiT Lytic Detection, 24 h); settings: stable HeLa cell line expressing HiBit-BRG1 and LgBit; for Dmax: read-out: BRG1 HiBit Degradation Maximum (%); for DC50: read-out: BRMG1 HiBit Degradation IC50
T2 construct: expressed in transfected cells
How it was run: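 HeLa cells stably expressing HiBit-BRG1 and LgBit, treated 24 h with 3-fold dilutions (10 points, duplicate, 30 μM final top dose). Luminescence read after Nano-Glo HiBiT lytic reagent; % degradation scaled between DMSO (high) and 2 μM reference BRM/BRG1 degrader (low control).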

T1 sequence (P51531 whole entry, the tested form may be a part): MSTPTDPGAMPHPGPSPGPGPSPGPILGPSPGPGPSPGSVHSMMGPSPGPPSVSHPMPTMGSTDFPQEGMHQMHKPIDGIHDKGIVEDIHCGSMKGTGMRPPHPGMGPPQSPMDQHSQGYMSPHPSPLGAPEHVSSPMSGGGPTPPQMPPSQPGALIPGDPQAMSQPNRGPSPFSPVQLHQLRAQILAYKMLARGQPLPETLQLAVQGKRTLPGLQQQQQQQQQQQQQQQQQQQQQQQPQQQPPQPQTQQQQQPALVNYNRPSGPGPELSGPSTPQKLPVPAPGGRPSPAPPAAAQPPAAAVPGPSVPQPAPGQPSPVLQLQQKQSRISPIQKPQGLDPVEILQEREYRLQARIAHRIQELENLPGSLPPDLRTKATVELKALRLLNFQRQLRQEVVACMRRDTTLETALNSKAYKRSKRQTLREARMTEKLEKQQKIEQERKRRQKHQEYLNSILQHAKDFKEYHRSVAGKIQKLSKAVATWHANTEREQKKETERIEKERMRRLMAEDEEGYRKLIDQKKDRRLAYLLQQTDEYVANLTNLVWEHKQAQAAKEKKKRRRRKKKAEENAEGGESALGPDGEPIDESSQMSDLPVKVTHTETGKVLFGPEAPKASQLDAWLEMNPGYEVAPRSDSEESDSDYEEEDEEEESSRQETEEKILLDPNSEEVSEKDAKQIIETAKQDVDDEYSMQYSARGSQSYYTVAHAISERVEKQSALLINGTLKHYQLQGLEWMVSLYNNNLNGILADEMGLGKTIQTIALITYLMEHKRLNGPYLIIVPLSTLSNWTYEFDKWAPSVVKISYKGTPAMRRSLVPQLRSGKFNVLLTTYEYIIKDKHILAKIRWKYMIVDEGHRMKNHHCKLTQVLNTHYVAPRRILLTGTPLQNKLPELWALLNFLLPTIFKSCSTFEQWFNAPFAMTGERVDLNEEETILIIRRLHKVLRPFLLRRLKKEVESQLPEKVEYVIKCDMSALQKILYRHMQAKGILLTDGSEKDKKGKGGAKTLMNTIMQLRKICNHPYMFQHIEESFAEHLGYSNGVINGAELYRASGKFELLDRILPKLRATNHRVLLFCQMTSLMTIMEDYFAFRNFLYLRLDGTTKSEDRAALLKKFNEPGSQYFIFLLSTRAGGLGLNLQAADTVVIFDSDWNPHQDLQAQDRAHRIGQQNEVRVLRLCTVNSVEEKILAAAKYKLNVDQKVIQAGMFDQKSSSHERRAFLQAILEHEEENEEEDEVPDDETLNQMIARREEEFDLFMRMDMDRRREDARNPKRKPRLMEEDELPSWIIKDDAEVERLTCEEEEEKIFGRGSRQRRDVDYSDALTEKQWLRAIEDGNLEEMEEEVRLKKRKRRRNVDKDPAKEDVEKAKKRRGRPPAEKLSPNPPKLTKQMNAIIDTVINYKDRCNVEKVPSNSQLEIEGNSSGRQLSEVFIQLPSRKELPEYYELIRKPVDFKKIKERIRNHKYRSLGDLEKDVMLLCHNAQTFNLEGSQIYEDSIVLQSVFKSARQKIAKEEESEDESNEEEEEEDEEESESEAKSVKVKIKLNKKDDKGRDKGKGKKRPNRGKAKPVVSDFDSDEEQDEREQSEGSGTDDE
T2 sequence (P51532 whole entry, the tested form may be a part): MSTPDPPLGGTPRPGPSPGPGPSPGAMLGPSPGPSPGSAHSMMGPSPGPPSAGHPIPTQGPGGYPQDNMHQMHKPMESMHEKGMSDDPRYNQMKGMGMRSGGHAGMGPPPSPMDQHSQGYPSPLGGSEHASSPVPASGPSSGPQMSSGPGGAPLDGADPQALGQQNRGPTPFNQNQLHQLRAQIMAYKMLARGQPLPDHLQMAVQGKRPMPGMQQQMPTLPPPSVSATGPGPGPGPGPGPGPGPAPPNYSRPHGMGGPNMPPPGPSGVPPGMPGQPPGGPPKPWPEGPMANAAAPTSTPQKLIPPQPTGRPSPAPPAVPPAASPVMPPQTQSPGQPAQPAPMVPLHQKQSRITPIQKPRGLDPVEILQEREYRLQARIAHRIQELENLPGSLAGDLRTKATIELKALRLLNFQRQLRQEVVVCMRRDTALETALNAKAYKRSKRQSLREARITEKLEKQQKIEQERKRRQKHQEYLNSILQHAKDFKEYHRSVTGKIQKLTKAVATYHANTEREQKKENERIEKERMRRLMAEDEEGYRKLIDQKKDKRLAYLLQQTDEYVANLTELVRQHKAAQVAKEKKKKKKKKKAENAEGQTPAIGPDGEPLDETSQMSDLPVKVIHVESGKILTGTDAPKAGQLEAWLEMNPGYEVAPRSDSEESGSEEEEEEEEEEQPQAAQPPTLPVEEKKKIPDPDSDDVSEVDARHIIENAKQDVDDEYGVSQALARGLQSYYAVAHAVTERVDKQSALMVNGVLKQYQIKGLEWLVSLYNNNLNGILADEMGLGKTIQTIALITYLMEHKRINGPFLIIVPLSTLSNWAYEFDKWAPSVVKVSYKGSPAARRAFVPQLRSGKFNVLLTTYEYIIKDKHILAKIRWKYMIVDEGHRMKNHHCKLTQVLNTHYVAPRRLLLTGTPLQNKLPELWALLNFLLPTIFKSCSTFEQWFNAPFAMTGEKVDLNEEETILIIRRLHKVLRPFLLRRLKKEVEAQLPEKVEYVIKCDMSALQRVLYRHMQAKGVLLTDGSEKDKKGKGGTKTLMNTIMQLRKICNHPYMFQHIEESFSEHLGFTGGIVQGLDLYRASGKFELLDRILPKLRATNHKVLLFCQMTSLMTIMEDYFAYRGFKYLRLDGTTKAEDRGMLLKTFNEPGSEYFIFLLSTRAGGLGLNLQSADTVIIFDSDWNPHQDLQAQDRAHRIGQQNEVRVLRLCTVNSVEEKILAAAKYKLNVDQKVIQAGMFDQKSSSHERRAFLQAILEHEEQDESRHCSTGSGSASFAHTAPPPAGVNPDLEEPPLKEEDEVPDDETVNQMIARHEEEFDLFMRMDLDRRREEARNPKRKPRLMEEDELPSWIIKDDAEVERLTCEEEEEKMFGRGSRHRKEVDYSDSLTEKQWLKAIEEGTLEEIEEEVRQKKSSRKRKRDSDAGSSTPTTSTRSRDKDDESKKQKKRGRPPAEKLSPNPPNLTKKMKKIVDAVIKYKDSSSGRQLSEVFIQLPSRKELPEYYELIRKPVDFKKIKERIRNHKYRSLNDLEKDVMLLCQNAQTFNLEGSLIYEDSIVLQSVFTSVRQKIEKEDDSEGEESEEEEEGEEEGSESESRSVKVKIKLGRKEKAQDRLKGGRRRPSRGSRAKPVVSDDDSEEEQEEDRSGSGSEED

Row | Compound | BRM HiBit Degradation Maximum (%) [1] | DC50 [1] | Dmax [2] | DC50 [2]
1 | Cc1ncsc1-c1ccc([C@H](C)NC(=O)[C@@H]2C[C@@H](O)CN2C(=O)[C@@H](c2cc(N3CC[C@@H](c4cc5nnc(-c6ccccc6O)cc5s4)C3)no2)C(C)C)cc1 [Compound 72, (2S,4R)-4-hydroxy-1-((R)-2-(3-((R)-3-(3-(2-hydroxyphenyl)thieno[3,2-c]pyridazin-6-yl)pyrrolidin-1-yl)isoxazol-5-yl)-3-methylbutanoyl)-N-((S)-1-(4-(4-methylthiazol-5-yl)phenyl)ethyl)pyrrolidine-2-carboxamide] | A (“A” indicates maximum degradation ≥75%) | < 10 nM | < 50% | 
2 | Cc1ncsc1-c1ccc([C@H](C)NC(=O)[C@@H]2C[C@@H](O)CN2C(=O)[C@@H](c2cc(-c3cnc(N4CC[C@H](c5sc6nnc(-c7ccccc7O)cc6c5C5CC5)C4)nc3)no2)C(C)C)cc1 [Compound 76, (2S,4R)-1-((R)-2-(3-(2-((S)-3-(5-cyclopropyl-3-(2-hydroxyphenyl)thieno[2,3-c]pyridazin-6-yl)pyrrolidin-1-yl)pyrimidin-5-yl)isoxazol-5-yl)-3-methylbutanoyl)-4-hydroxy-N-((S)-1-(4-(4-methylthiazol-5-yl)phenyl)ethyl)pyrrolidine-2-carboxamide] | A (“A” indicates maximum degradation ≥75%) | < 10 nM | < 50% | 
3 | Cc1ncsc1-c1ccc([C@H](C)NC(=O)[C@@H]2C[C@@H](O)CN2C(=O)[C@@H](c2cc(C#Cc3sc4nnc(-c5ccccc5O)cc4c3C)no2)C(C)C)cc1 (single isomer, unassigned) [Compound 37] | A (“A” indicates maximum degradation ≥75%) | > 100 nM | > 50% | > 1000 nM
4 | Cc1ncsc1-c1ccc([C@H](C)NC(=O)[C@@H]2C[C@@H](O)CN2C(=O)[C@@H](c2cc(-c3cnc(N4CCC(c5cc6nnc(-c7ccccc7O)cc6s5)CC4)nc3)no2)C(C)C)cc1 [Compound 55, (2S,4R)-4-hydroxy-1-((R)-2-(3-(2-(4-(3-(2-hydroxyphenyl)thieno[3,2-c]pyridazin-6-yl)piperidin-1-yl)pyrimidin-5-yl)isoxazol-5-yl)-3-methylbutanoyl)-N-((S)-1-(4-(4-methylthiazol-5-yl)phenyl)ethyl)pyrrolidine-2-carboxamide] | A (“A” indicates maximum degradation ≥75%) | < 10 nM | < 50% | > 1000 nM
5 | Cc1ncsc1-c1ccc([C@H](C)NC(=O)[C@@H]2C[C@@H](O)CN2C(=O)[C@@H](c2cc(-c3ccc(N4CCC(c5cc6cc(-c7ccccc7O)nnc6s5)CC4)nn3)no2)C(C)C)cc1 [Compound 33, (2S,4R)-4-hydroxy-1-((R)-2-(3-(6-(4-(3-(2-hydroxyphenyl)thieno[2,3-c]pyridazin-6-yl)piperidin-1-yl)pyridazin-3-yl)isoxazol-5-yl)-3-methylbutanoyl)-N-((S)-1-(4-(4-methylthiazol-5-yl)phenyl)ethyl)pyrrolidine-2-carboxamide] | A (“A” indicates maximum degradation ≥75%) | > 10 nM | < 50% | > 1000 nM
6 | Cc1ncsc1-c1ccc([C@H](C)NC(=O)[C@@H]2C[C@@H](O)CN2C(=O)[C@@H](c2cc(-c3ccc(N4CCC(c5sc6nnc(-c7ccccc7O)cc6c5C)CC4)nn3)no2)C(C)C)cc1 [Compound 57, (2S,4R)-4-hydroxy-1-((R)-2-(3-(6-(4-(3-(2-hydroxyphenyl)-5-methylthieno[2,3-c]pyridazin-6-yl)piperidin-1-yl)pyridazin-3-yl)isoxazol-5-yl)-3-methylbutanoyl)-N-((S)-1-(4-(4-methylthiazol-5-yl)phenyl)ethyl)pyrrolidine-2-carboxamide] | A (“A” indicates maximum degradation ≥75%) | < 10 nM | < 50% | > 1000 nM
7 | Cc1ncsc1-c1ccc([C@H](C)NC(=O)[C@@H]2C[C@@H](O)CN2C(=O)[C@@H](c2cc(-c3cnc(N4CC[C@@H](c5sc6nnc(-c7ccccc7O)cc6c5C)[C@H](C)C4)nc3)no2)C(C)C)cc1 [Compound 25, (2S,4R)-4-hydroxy-1-((R)-2-(3-(2-((3S,4R)-4-(3-(2-hydroxyphenyl)-5-methylthieno[2,3-c]pyridazin-6-yl)-3-methylpiperidin-1-yl)pyrimidin-5-yl)isoxazol-5-yl)-3-methylbutanoyl)-N-((S)-1-(4-(4-methylthiazol-5-yl)phenyl)ethyl)pyrrolidine-2-carboxamide] | A (“A” indicates maximum degradation ≥75%) | > 10 nM | < 50% | > 1000 nM
8 | Cc1ncsc1-c1ccc([C@H](C)NC(=O)[C@@H]2C[C@@H](O)CN2C(=O)[C@@H](c2cc(N3CC4(C3)CN(c3sc5nnc(-c6ccccc6O)cc5c3C3CC3)C4)no2)C(C)C)cc1 [Compound 71, (2S,4R)-1-((R)-2-(3-(6-(5-cyclopropyl-3-(2-hydroxyphenyl)thieno[2,3-c]pyridazin-6-yl)-2,6-diazaspiro[3.3]heptan-2-yl)isoxazol-5-yl)-3-methylbutanoyl)-4-hydroxy-N—((S)-1-(4-(4-methylthiazol-5-yl)phenyl)ethyl)pyrrolidine-2-carboxamide] | A (“A” indicates maximum degradation ≥75%) | < 10 nM | < 50% | 
9 | Cc1cc(-c2cc([C@H](C(=O)N3C[C@H](O)C[C@H]3C(=O)N[C@@H](C)c3ccc(-c4scnc4C)cc3)C(C)C)on2)cnc1N1CCC(c2sc3nnc(-c4ccccc4O)cc3c2C)CC1 [Compound 43, (2S,4R)-4-hydroxy-1-((R)-2-(3-(6-(4-(3-(2-hydroxyphenyl)-5-methylthieno[2,3-c]pyridazin-6-yl)piperidin-1-yl)-5-methylpyridin-3-yl)isoxazol-5-yl)-3-methylbutanoyl)-N-((S)-1-(4-(4-methylthiazol-5-yl)phenyl)ethyl)pyrrolidine-2-carboxamide] | A (“A” indicates maximum degradation ≥75%) | < 10 nM | < 50% | > 1000 nM
10 | Cc1ncsc1-c1ccc([C@H](C)NC(=O)[C@@H]2C[C@@H](O)CN2C(=O)[C@@H](c2cc(-c3c(C)nc(N4CCC(c5sc6nnc(-c7ccccc7O)cc6c5C)CC4)nc3C)no2)C(C)C)cc1 [Compound 11, (2S,4R)-4-hydroxy-1-((R)-2-(3-(2-(4-(3-(2-hydroxyphenyl)-5-methylthieno[2,3-c]pyridazin-6-yl)piperidin-1-yl)-4,6-dimethylpyrimidin-5-yl)isoxazol-5-yl)-3-methylbutanoyl)-N-((S)-1-(4-(4-methylthiazol-5-yl)phenyl)ethyl)pyrrolidine-2-carboxamide] | A (“A” indicates maximum degradation ≥75%) | < 10 nM | > 50% | > 10 nM
11 | Cc1ncsc1-c1ccc([C@H](C)NC(=O)[C@@H]2C[C@@H](O)CN2C(=O)[C@@H](c2cc(-c3cnc(N4CC[C@H](c5sc6nnc(-c7ccccc7O)cc6c5C)C[C@@H]4C)nc3)no2)C(C)C)cc1 [Compound 27, (2S,4R)-4-hydroxy-1-((R)-2-(3-(2-((2S,4S)-4-(3-(2-hydroxyphenyl)-5-methylthieno[2,3-c]pyridazin-6-yl)-2-methylpiperidin-1-yl)pyrimidin-5-yl)isoxazol-5-yl)-3-methylbutanoyl)-N-((S)-1-(4-(4-methylthiazol-5-yl)phenyl)ethyl)pyrrolidine-2-carboxamide] | A (“A” indicates maximum degradation ≥75%) | < 10 nM | < 50% | > 1000 nM
12 | Cc1ncsc1-c1ccc([C@H](C)NC(=O)[C@@H]2C[C@@H](O)CN2C(=O)[C@@H](c2cc(N3CC4(C3)CN(c3sc5nnc(-c6ccccc6O)cc5c3C)C4)no2)C(C)C)cc1 [Compound 79, (2S,4R)-4-hydroxy-1-((R)-2-(3-(6-(3-(2-hydroxyphenyl)-5-methylthieno[2,3-c]pyridazin-6-yl)-2,6-diazaspiro[3.3]heptan-2-yl)isoxazol-5-yl)-3-methylbutanoyl)-N-((S)-1-(4-(4-methylthiazol-5-yl)phenyl)ethyl)pyrrolidine-2-carboxamide] | A (“A” indicates maximum degradation ≥75%) | < 10 nM | > 50% | 
13 | Cc1ncsc1-c1ccc([C@H](C)NC(=O)[C@@H]2C[C@@H](O)CN2C(=O)[C@@H](c2cc(N3CCC4(CC3)CC(c3cc5cc(-c6ccccc6O)nnc5s3)C4)no2)C(C)C)cc1 [Compound 98, (2S,4R)-4-hydroxy-1-((R)-2-(3-(2-(3-(2-hydroxyphenyl)thieno[2,3-c]pyridazin-6-yl)-7-azaspiro[3.5]nonan-7-yl)isoxazol-5-yl)-3-methylbutanoyl)-N-((S)-1-(4-(4-methylthiazol-5-yl)phenyl)ethyl)pyrrolidine-2-carboxamide] | A (“A” indicates maximum degradation ≥75%) | > 10 nM | > 75% | > 100 nM
14 | Cc1ncsc1-c1ccc([C@H](C)NC(=O)[C@@H]2C[C@@H](O)CN2C(=O)[C@@H](c2cc(-c3cnc(N4CCN(c5sc6nnc(-c7ccccc7O)cc6c5C)CC4)nc3)no2)C(C)C)cc1 [Compound 53, (2S,4R)-4-hydroxy-1-((R)-2-(3-(2-(4-(3-(2-hydroxyphenyl)-5-methylthieno[2,3-c]pyridazin-6-yl)piperazin-1-yl)pyrimidin-5-yl)isoxazol-5-yl)-3-methylbutanoyl)-N-((S)-1-(4-(4-methylthiazol-5-yl)phenyl)ethyl)pyrrolidine-2-carboxamide] | A (“A” indicates maximum degradation ≥75%) | < 10 nM | > 75% | > 10 nM
